Read-outs that look alike come from different tables or passages of the source.
Legend:
Ba/F3-FLT3/ITD-Luc cells = format: in vivo, BALB/c mice
MOLM-14 cells = format: cell-based; conditions: for increase in IC50 (inhibition) in the presence of 50% human plasma: 50% human plasma vs 10% FBS
HL-60 cells = experiment: Antiproliferative effect of staurosporine on HL-60 cells in the presence of AGP; format: cell-based; conditions: until saturating concentrations of drug were used
FLT3 = format: cell-based
[1] = Human AGP levels and tolerability in mice after intraperitoneal injection; format: in vivo; conditions: 0.3 g/kg i.p.

For CO[C@@H]1[C@H](N(C)C(=O)c2ccccc2)C[C@H]2O[C@]1(C)n1c3ccccc3c3c4c(c5c6ccccc6n2c5c31)C(=O)NC4 [midostaurin], the “response of transplanted FLT3/ITD cells (bioluminescence day 9)” value (“response of transplanted FLT3/ITD cells” below) (Ba/F3-FLT3/ITD-Luc cells; midostaurin alone, oral gavage 4 days) was “regression of the cells” and the “response of transplanted FLT3/ITD cells” value (Ba/F3-FLT3/ITD-Luc cells; midostaurin plus intraperitoneal human AGP) was “progression of the cells comparable with that seen in the control animals”.

With CC(C)(C)c1cc(NC(=O)Nc2ccc(-c3cn4c(n3)sc3cc(OCCN5CCOCC5)ccc34)cc2)no1 [quizartinib] the “increase in IC50 (inhibition) in the presence of 50% human plasma” value (MOLM-14 cells; 48 h MTT) was 37 fold.

With CN[C@@H]1C[C@H]2O[C@@](C)([C@@H]1OC)n1c3ccccc3c3c4c(c5c6ccccc6n2c5c31)C(=O)NC4 [staurosporine] the “antiproliferative activity in the presence of AGP” value (HL-60 cells) was “no appreciable activity”.

In the case of C[C@]12O[C@H](C[C@]1(O)CO)n1c3ccccc3c3c4c(c5c6ccccc6n2c5c31)CNC4=O [lestaurtinib], the “FLT3 phosphorylation inhibition in the presence of human plasma” value (FLT3; 10 nmol/L and 100 nmol/L TKI, 50% human plasma) is reported as “no appreciable FLT3 TKI activity”, the “IC50 in 50% human plasma compared with 10% FBS” value (MOLM-14 cells; 50% human plasma from healthy donors, 48 h) is reported as “IC50s were no longer reached” and the “increase in IC50 (inhibition) in the presence of 50% human plasma” value (MOLM-14 cells; 48 h MTT) is reported as “greater than 100 fold”. The “activity across a range of AGP concentrations” value (MOLM-14 cells; AGP 31 µg/mL – 2 mg/mL, 48 h MTT) was “appreciable activity is seen only at AGP concentrations less than one tenth of physiologic human levels” and the “IC50 increase by bovine AGP” value (MOLM-14 cells; bovine AGP adjusted to human-comparable levels) was ~5 fold.

For CCc1nc(C(N)=O)c(Nc2ccc(N3CCC(N4CCN(C)CC4)CC3)c(OC)c2)nc1NC1CCOCC1 [gilteritinib], the “effect of plasma proteins on activity” value (MOLM-14 cells; 50% human plasma or 50 mg/dL AGP, 48 h MTT) was “minimally affected”.

In the case of “human AGP: alpha-1-acid glycoprotein purified from human plasma (Sigma), injected i.p. into mice”, the terminal half-life [1] is reported as “approximately 17 hours”.

In the case of CNC(=O)c1cc(Oc2ccc(NC(=O)Nc3ccc(Cl)c(C(F)(F)F)c3)cc2)ccn1 [sorafenib], the “increase in IC50 (inhibition) in the presence of 50% human plasma” value (MOLM-14 cells; 48 h MTT) is reported as “greater than 100 fold”.

For CC#C[C@]1(O)CC[C@H]2[C@@H]3CCC4=CC(=O)CCC4=C3[C@@H](c3ccc(N(C)C)cc3)C[C@@]21C [mifepristone], the “effect alone upon FLT3 autophosphorylation or downstream signaling” value (FLT3; mifepristone alone) was “no effect”, the “effect of mifepristone alone on cell growth” value (MOLM-14 cells; at concentrations of maximal effect, no TKI) was “no appreciable effect on cell growth” and the “impact upon TTT-3002 dose–response curves in the absence of AGP” value (MOLM-14 cells; no AGP) was “had no impact”. For the same compound, the “response of transplanted FLT3/ITD cells” value (Ba/F3-FLT3/ITD-Luc cells; midostaurin plus human AGP plus oral mifepristone) was “regression of the transplanted cells comparable with those of the midostaurin alone–treated mice”.
